Assay results published in patent publication US20220016101A1 (ACADIA Pharmaceuticals Inc., priority 2018, published 2022).

Tested on: patients with MDD and an inadequate response to an SSRI or SNRI
Assay: Massachusetts General Hospital Sexual Functioning Index (MGH-SFI), Study ACP-103-042
Type: in vivo, human
Conditions: for MGH-SFI 05: Overall Sexual Satisfaction, Effect Size (Cohen's d) / MGH-SFI 06: Overall Improvement Since Last Medication Change, Effect Size (Cohen's d) / MGH-SFI 04: (Men) Ability to Get and Maintain an Erection, Effect Size (Cohen's d) / MGH-SFI 02: Ability to Get Sexually Aroused or Excited, Effect Size (Cohen's d) / MGH-SFI 03: Ability to Achieve Orgasm, Effect Size (Cohen's d) / MGH-SFI 01: Interest in Sex, Effect Size (Cohen's d): PIM 34 mg vs placebo; for MGH-SFI 04: (Men) Ability to Get and Maintain an Erection, Change from Baseline to Week 5 Mean (SE) / MGH-SFI 04: (Men) Ability to Get and Maintain an Erection, Change from Baseline to Week 5 Median / MGH-SFI 04: (Men) Ability to Get and Maintain an Erection, Week 5 Mean (SE) / MGH-SFI 04: (Men) Ability to Get and Maintain an Erection, Week 5 Median / MGH-SFI 05: Overall Sexual Satisfaction, Change from Baseline to Week 5 Mean (SE) / MGH-SFI 05: Overall Sexual Satisfaction, Change from Baseline to Week 5 Median / MGH-SFI 05: Overall Sexual Satisfaction, Week 5 Mean (SE) / MGH-SFI 05: Overall Sexual Satisfaction, Week 5 Median / MGH-SFI 06: Overall Improvement Since Last Medication Change, Week 5 Mean (SE) / MGH-SFI 06: Overall Improvement Since Last Medication Change, Week 5 Median / MGH-SFI 02: Ability to Get Sexually Aroused or Excited, Change from Baseline to Week 5 Mean (SE) / MGH-SFI 02: Ability to Get Sexually Aroused or Excited, Change from Baseline to Week 5 Median / MGH-SFI 02: Ability to Get Sexually Aroused or Excited, Week 5 Mean (SE) / MGH-SFI 02: Ability to Get Sexually Aroused or Excited, Week 5 Median / MGH-SFI 03: Ability to Achieve Orgasm, Change from Baseline to Week 5 Mean (SE) / MGH-SFI 03: Ability to Achieve Orgasm, Change from Baseline to Week 5 Median / MGH-SFI 03: Ability to Achieve Orgasm, Week 5 Mean (SE) / MGH-SFI 03: Ability to Achieve Orgasm, Week 5 Median / MGH-SFI 01: Interest in Sex, Change from Baseline to Week 5 Mean (SE) / MGH-SFI 01: Interest in Sex, Change from Baseline to Week 5 Median / MGH-SFI 01: Interest in Sex, Week 5 Mean (SE) / MGH-SFI 01: Interest in Sex, Week 5 Median: PIM 34 mg; for MGH-SFI 01: Interest in Sex, Change from Baseline to Week 5 Mean (SE) / MGH-SFI 01: Interest in Sex, Change from Baseline to Week 5 Median / MGH-SFI 01: Interest in Sex, Week 5 Mean (SE) / MGH-SFI 01: Interest in Sex, Week 5 Median / MGH-SFI 01: Interest in Sex, Effect Size (Cohen's d): subgroup >50 years
Excerpt: “Massachusetts General Hospital Sexual Functioning Index (MGH-SFI)” is described, for instance, in Labbate and Lare, 2001, Psychother Psychosom. 70(4):221-225. This is a patient facing questionnaire that quantifies sexual dysfunction into 5 functional domains (“interest in sex,” “sexual arousal,” “ability to achieve orgasm,” “ability to maintain erection” (males only), and “sexual satisfaction”). Patients rate each item using a 6-point scale ranging from 1 (good function) to 6 (poor function). High scores indicate poor sexual functioning. […] The determination of the subject's status and eligibility for randomization in Stage 2 was made in a double-blind manner. […] Sexual functioning was assessed using the Massachusetts General Hospital Sexual Functioning Index or MGH-SFI (Labbate and Lare, 2001, Psychother Psychosom. 70(4):221-225). This is a patient facing questionnaire that quantifies sexual dysfunction into 5 functional domains (“interest in sex,” “sexual arousal,” “ability to achieve orgasm,” “ability to maintain erection” [malesonly], and “sexual satisfaction”). Patients rate each item using a 6-point scale ranging from 1 (good function) to 6 (poor function). The time frame for this scale is the past month. This scale was administered at baseline and Week 5 in both stages of the study. High scores indicate poor sexual functioning. In ACP-103-042 the mean scores for MGH-SFI at Baseline was calculated over all 5 domains for males and the 4 domains for females. For MGH-SFI (follow-up version) at Study Weeks 5 and 10, the mean was calculated in the same way as MGH-SFI at Baseline. […] Tables 10-27 summarize the detailed data of MGH-SFI individual items of the overall study group (Tables 10-15), the subgroup of age of <=50 (Tables 16-21) and the subgroup of age of >50 (Table 21-26). In Tables 9-26, ANCOVA=analysis of covariance; OC=observed cases; LSM=least squares mean; CI=confidence interval; SD=standard deviation; SE=standard error. Stage 1: Baseline=Study Week 0, Week 5=Study Week 5; Stage 2: Baseline=Study Week 5, Week 5=Study Weeks 10. LSM from the stage-specific ANCOVA analysis with the change from baseline as the outcome, treatment group as a factor, and the corresponding Baseline value as a covariate. 2-sided p-value for treatment difference from the stage-specific ANCOVA analysis. An treatment effect size (Cohen's d) is calculated using the formula: Effect Size=Least Square mean difference between PIM and PBO/SD. The corresponding 95% confidence interval for an effect size is calculated based on the theoretical probability distribution of the effect size. […] Tables 10-15 and 28-38 summarize the detailed data of MGH-SFI individual items of the overall study group (Tables 10-15), the female subgroup (Tables 33-37) and the male subgroup (Table 38-43). An treatment effect size (Cohen's d) is calculated using the formula: Effect Size=Least Square mean difference between PIM and PBO/SD. The corresponding 95% confidence interval for an effect size is calculated based on the theoretical probability distribution of the effect size. In Tables 10-15 and 28-38, ANCOVA=analysis of covariance; OC=observed cases; LSM=least squares mean; CI=confidence interval; SD=standard deviation; SE=standard error. Stage 1: Baseline=Study Week 0, Week 5=Study Week 5; Stage 2: Baseline=Study Week 5, Week 5=Study Weeks 10. LSM from the stage-specific ANCOVA analysis with the change from baseline as the outcome, treatment group as a factor, and the corresponding Baseline value as a covariate. 2-sided p-value for treatment difference from the stage-specific ANCOVA analysis. An treatment effect size (Cohen's d) is calculated using the formula: Effect Size=Least Square mean difference between PIM and PBO/SD. The corresponding 95% confidence interval for an effect size is calculated based on the theoretical probability distribution of the effect size.

[1] = subgroup <=50 years old, Stage 1
[2] = subgroup <=50 years old, Stage 2
[3] = subgroup >50 years old, Stage 1
[4] = subgroup >50 years old, Stage 2

CC(C)COc1ccc(CNC(=O)N(Cc2ccc(F)cc2)C2CCN(C)CC2)cc1 [pimavanserin, N-(4-Fluorophenylmethyl)-N-(1-methylpiperidin-4-yl)-N′-(4-(2-methylpropyloxy)phenylmethyl)carbamide]
MGH-SFI 05: Overall Sexual Satisfaction, Effect Size (Cohen's d) [1]: 0.304 | MGH-SFI 06: Overall Improvement Since Last Medication Change, Effect Size (Cohen's d) [1]: 0.622 | MGH-SFI 04: (Men) Ability to Get and Maintain an Erection, Change from Baseline to Week 5 Mean (SE) [2]: −0.3 (0.48) | MGH-SFI 04: (Men) Ability to Get and Maintain an Erection, Change from Baseline to Week 5 Median [2]: −0.5 | MGH-SFI 04: (Men) Ability to Get and Maintain an Erection, Week 5 Mean (SE) [2]: 3.5 (0.50) | MGH-SFI 04: (Men) Ability to Get and Maintain an Erection, Week 5 Median [2]: 4.0 | MGH-SFI 05: Overall Sexual Satisfaction, Change from Baseline to Week 5 Mean (SE) [2]: −0.6 (0.34) | MGH-SFI 05: Overall Sexual Satisfaction, Change from Baseline to Week 5 Median [2]: −1.0 | MGH-SFI 05: Overall Sexual Satisfaction, Week 5 Mean (SE) [2]: 4.0 (0.39) | MGH-SFI 05: Overall Sexual Satisfaction, Week 5 Median [2]: 4.0 | MGH-SFI 06: Overall Improvement Since Last Medication Change, Week 5 Mean (SE) [2]: 3.8 (0.33) | MGH-SFI 06: Overall Improvement Since Last Medication Change, Week 5 Median [2]: 4.0 | MGH-SFI 04: (Men) Ability to Get and Maintain an Erection, Effect Size (Cohen's d) [2]: −0.526 | MGH-SFI 05: Overall Sexual Satisfaction, Effect Size (Cohen's d) [2]: 0.405 | MGH-SFI 06: Overall Improvement Since Last Medication Change, Effect Size (Cohen's d) [2]: 0.043 | MGH-SFI 02: Ability to Get Sexually Aroused or Excited, Change from Baseline to Week 5 Mean (SE) [3]: −0.9 (0.21) | MGH-SFI 02: Ability to Get Sexually Aroused or Excited, Change from Baseline to Week 5 Median [3]: −1.0 | MGH-SFI 02: Ability to Get Sexually Aroused or Excited, Week 5 Mean (SE) [3]: 3.9 (0.32) | MGH-SFI 02: Ability to Get Sexually Aroused or Excited, Week 5 Median [3]: 4.0 | MGH-SFI 03: Ability to Achieve Orgasm, Change from Baseline to Week 5 Mean (SE) [3]: −1.2 (0.33) | MGH-SFI 03: Ability to Achieve Orgasm, Change from Baseline to Week 5 Median [3]: 0.0 | MGH-SFI 03: Ability to Achieve Orgasm, Week 5 Mean (SE) [3]: 3.8 (0.33) | MGH-SFI 03: Ability to Achieve Orgasm, Week 5 Median [3]: 4.0 | MGH-SFI 04: (Men) Ability to Get and Maintain an Erection, Change from Baseline to Week 5 Mean (SE) [3]: 0.8 (0.48) | MGH-SFI 04: (Men) Ability to Get and Maintain an Erection, Change from Baseline to Week 5 Median [3]: 0.5 | MGH-SFI 04: (Men) Ability to Get and Maintain an Erection, Week 5 Mean (SE) [3]: 5.0 (0.71) | MGH-SFI 04: (Men) Ability to Get and Maintain an Erection, Week 5 Median [3]: 5.5 | MGH-SFI 05: Overall Sexual Satisfaction, Change from Baseline to Week 5 Mean (SE) [3]: −1.1 (0.34) | MGH-SFI 05: Overall Sexual Satisfaction, Change from Baseline to Week 5 Median [3]: 0.0 | MGH-SFI 05: Overall Sexual Satisfaction, Week 5 Mean (SE) [3]: 4.1 (0.34) | MGH-SFI 05: Overall Sexual Satisfaction, Week 5 Median [3]: 4.0 | MGH-SFI 06: Overall Improvement Since Last Medication Change, Week 5 Mean (SE) [3]: 3.3 (0.24) | MGH-SFI 06: Overall Improvement Since Last Medication Change, Week 5 Median [3]: 4.0 | MGH-SFI 02: Ability to Get Sexually Aroused or Excited, Effect Size (Cohen's d) [3]: 0.660 | MGH-SFI 03: Ability to Achieve Orgasm, Effect Size (Cohen's d) [3]: 0.869 | MGH-SFI 04: (Men) Ability to Get and Maintain an Erection, Effect Size (Cohen's d) [3]: −0.568 | MGH-SFI 05: Overall Sexual Satisfaction, Effect Size (Cohen's d) [3]: 0.757 | MGH-SFI 06: Overall Improvement Since Last Medication Change, Effect Size (Cohen's d) [3]: 0.531 | MGH-SFI 02: Ability to Get Sexually Aroused or Excited, Change from Baseline to Week 5 Mean (SE) [4]: −0.4 (0.21) | MGH-SFI 02: Ability to Get Sexually Aroused or Excited, Change from Baseline to Week 5 Median [4]: 0.0 | MGH-SFI 02: Ability to Get Sexually Aroused or Excited, Week 5 Mean (SE) [4]: 4.4 (0.46) | MGH-SFI 02: Ability to Get Sexually Aroused or Excited, Week 5 Median [4]: 5.0 | MGH-SFI 03: Ability to Achieve Orgasm, Change from Baseline to Week 5 Mean (SE) [4]: −0.5 (0.27) | MGH-SFI 03: Ability to Achieve Orgasm, Change from Baseline to Week 5 Median [4]: 0.0 | MGH-SFI 03: Ability to Achieve Orgasm, Week 5 Mean (SE) [4]: 4.5 (0.54) | MGH-SFI 03: Ability to Achieve Orgasm, Week 5 Median [4]: 5.0 | MGH-SFI 04: (Men) Ability to Get and Maintain an Erection, Change from Baseline to Week 5 Mean (SE) [4]: −1.6 (0.51) | MGH-SFI 04: (Men) Ability to Get and Maintain an Erection, Change from Baseline to Week 5 Median [4]: −2.0 | MGH-SFI 04: (Men) Ability to Get and Maintain an Erection, Week 5 Mean (SE) [4]: 2.8 (0.92) | MGH-SFI 04: (Men) Ability to Get and Maintain an Erection, Week 5 Median [4]: 2.0 | MGH-SFI 05: Overall Sexual Satisfaction, Change from Baseline to Week 5 Mean (SE) [4]: −0.8 (0.39) | MGH-SFI 05: Overall Sexual Satisfaction, Change from Baseline to Week 5 Median [4]: 0.0 | MGH-SFI 05: Overall Sexual Satisfaction, Week 5 Mean (SE) [4]: 4.2 (0.58) | MGH-SFI 05: Overall Sexual Satisfaction, Week 5 Median [4]: 5.0 | MGH-SFI 06: Overall Improvement Since Last Medication Change, Week 5 Mean (SE) [4]: 3.5 (0.40) | MGH-SFI 06: Overall Improvement Since Last Medication Change, Week 5 Median [4]: 4.0 | MGH-SFI 02: Ability to Get Sexually Aroused or Excited, Effect Size (Cohen's d) [4]: −0.075 | MGH-SFI 03: Ability to Achieve Orgasm, Effect Size (Cohen's d) [4]: 0.169 | MGH-SFI 04: (Men) Ability to Get and Maintain an Erection, Effect Size (Cohen's d) [4]: 1.174 | MGH-SFI 05: Overall Sexual Satisfaction, Effect Size (Cohen's d) [4]: 0.555 | MGH-SFI 06: Overall Improvement Since Last Medication Change, Effect Size (Cohen's d) [4]: 0.406 | MGH-SFI 01: Interest in Sex, Change from Baseline to Week 5 Mean (SE) (Stage 1): −1.0 (0.24) | MGH-SFI 01: Interest in Sex, Change from Baseline to Week 5 Median (Stage 1): −1.0 | MGH-SFI 01: Interest in Sex, Week 5 Mean (SE) (Stage 1): 3.9 (0.32) | MGH-SFI 01: Interest in Sex, Week 5 Median (Stage 1): 4.0 | MGH-SFI 01: Interest in Sex, Effect Size (Cohen's d) (Stage 1): 0.649 | MGH-SFI 01: Interest in Sex, Change from Baseline to Week 5 Mean (SE) (Stage 2): −0.6 (0.24) | MGH-SFI 01: Interest in Sex, Change from Baseline to Week 5 Median (Stage 2): 0.0 | MGH-SFI 01: Interest in Sex, Week 5 Mean (SE) (Stage 2): 4.4 (0.45) | MGH-SFI 01: Interest in Sex, Week 5 Median (Stage 2): 5.0 | MGH-SFI 01: Interest in Sex, Effect Size (Cohen's d) (Stage 2): 0.468
